SMILES strings stand for the structures.

For this test, the system named is phospho-p90 RSK (RSK1 Thr359/Ser363) in A375 (Braf V600E) cells. The experiment in a line: Phospho-p90 RSK ELISA using A375 (Braf V600E) cells. It counts as cell-based. The following applies: Homo sapiens, A-375, 2 hours compound treatment, read-out: Cellular Phospho-p90RSK IC50. How it is done: In preparation for the assay, an ELISA plate with the pre-coated goat anti-mouse antibody (Thermo Scientific) was treated with a mouse anti-human RSK1 antibody (monoclonal, Invitrogen) at 1:800 dilution (150 ng/well) in PBS, and the plate was placed on a plate shaker at 4° C. overnight. […] After two […] of the compound treatment, the supernatant was removed from the cell plate, and cells were lysed in 100 μl per well of cell lysis buffer (Cell Signaling Technologies) containing phosphatase and protease inhibitors (Cell Signaling Technologies) on a plate shaker at 4° C. for 20 minutes. The ELISA plate was washed four times with ELISA wash buffer (Thermo Scientific) prior to addition of 100 μL cell lysate. The lysate was incubated on the ELISA plate with gentle shaking at room temperature for 2 hours. The contents of the wells were removed, and the ELISA plate was washed four times with wash buffer, and incubated with 100 μL per well of anti-phospho-RSK1 (Thr359/Ser363) rabbit monoclonal antibody (Millipore) at dilution of 1:1000 in StartingBlock buffer (Thermo Scientific) on a plate shaker at room temperature for 1 hour. The contents of the wells were removed, the ELISA plate was washed four times with wash buffer, and was incubated with 100 μL per well of goat anti-rabbit HRP (Thermo Scientific) at dilution of 1:3000 in StartingBlock buffer (Thermo Scientific) on a plate shaker at room temperature for 1 hour. The contents of the wells were removed, the ELISA plate was washed four times with wash buffer, and then incubated with 100 μL per well of TMB substrate solution (Thermo Scientific) on a plate shaker at room temperature for 20 minutes. Finally, 100 μL of TMB stop solution (Thermo Scientific) was added to each well and the absorbance is measured at 450 nm on a Tecan plate reader.
Consider `COc1ncc(-c2n[nH]c3cc4[nH]c(=O)c(C(C)c5cccc(Cl)c5)cc4cc23)cn1` (centres unmarked) [Example 129], for which the IC50 is 250 to 1000 nM.
In the case of `Cc1ccc(CN2CCC[C@@H](N3Cc4cc5c(-c6ccnc(C)c6)n[nH]c5cc4NC3=O)C2)cn1` [Example 131] it was > 1000 nM.
The result for `Cc1cc(-c2n[nH]c3cc4c(cc23)CN([C@@H]2CCCN(Cc3cnn(C)c3)C2)C(=O)N4)ccn1` [Example 133] reads > 1000 nM; that for `Cc1cc(-c2n[nH]c3cc4c(cc23)CN([C@@H]2CCCN(CC3CCC3)C2)C(=O)N4)ccn1` [Example 137], 250 to 1000 nM.
The result for `Cc1cc(-c2n[nH]c3cc4c(cc23)CN([C@@H]2CCCN(CC3CC5CCC3C5)C2)C(=O)N4)ccn1` (some centres unmarked) [Example 142] reads ≤ 250 nM; that for `Cc1cc(-c2n[nH]c3cc4c(cc23)CN([C@@H]2CCCN(CCc3ccccc3)C2)C(=O)N4)ccn1` [Example 145], 250 to 1000 nM.
As for `COc1ncccc1CN1CCC[C@@H](N2Cc3cc4c(-c5ccnc(C)c5)n[nH]c4cc3NC2=O)C1` [Example 150], the IC50 is ≤ 250 nM.
The result for `Cc1cc(-c2n[nH]c3cc4c(cc23)CN([C@@H]2CCCN(CCC3CC3)C2)C(=O)N4)ccn1` [Example 155] reads 250 to 1000 nM; that for `Cc1cc(-c2n[nH]c3cc4c(cc23)CN(C2CCN(CCc3ccccc3)CC2)C(=O)N4)ccn1` [Example 157], > 1000 nM.
In the case of `Cc1cc(-c2n[nH]c3cc4c(cc23)CN([C@@H]2CCCN(Cc3ccc(Cl)cc3)C2)C(=O)N4)ccn1` [Example 159] it was 250 to 1000 nM; in that of `Cc1cc(-c2n[nH]c3cc4[nH]c(=O)c(C(C)C5CCCCC5)cc4cc23)ccn1` (centres unmarked) [Example 160], > 1000 nM; in that of `Cc1cc(-c2n[nH]c3cc4c(cc23)CN([C@@H]2CCCN(CCc3cccc(Cl)c3)C2)C(=O)N4)ccn1` [Example 164], > 1000 nM.
In the case of `Cc1cc(-c2n[nH]c3cc4c(cc23)CN([C@@H]2CCCN(Cc3cncnc3)C2)C(=O)N4)ccn1` [Example 166] it was > 1000 nM; in that of `Cc1cc(-c2n[nH]c3cc4c(cc23)CN([C@@H]2CCCN(CCc3ccc(F)cc3)C2)C(=O)N4)ccn1` [Example 167], > 1000 nM; in that of `Cc1cc(-c2n[nH]c3cc4c(cc23)CN([C@@H]2CCCN(Cc3ncccc3C)C2)C(=O)N4)ccn1` [Example 168], 250 to 1000 nM.
With `Cc1cc(-c2n[nH]c3cc4c(cc23)CN([C@@H]2CCCN(CCC(C)C)C2)C(=O)N4)ccn1` [Example 169], the IC50 fell in the range of 250 to 1000 nM.
With `Cc1cc(-c2n[nH]c3cc4c(cc23)CN([C@@H]2CCCN(Cc3cccnc3C)C2)C(=O)N4)ccn1` [Example 170], the IC50 is 250 to 1000 nM.
In the case of `Cc1cc(-c2n[nH]c3cc4c(cc23)CN([C@@H]2CCCN(Cc3ccccn3)C2)C(=O)N4)ccn1` [Example 171] it was > 1000 nM.
In the case of `Cc1cc(-c2n[nH]c3cc4c(cc23)CN([C@@H]2CCCN(C(=O)c3ccccc3)C2)C(=O)N4)ccn1` [Example 172], the IC50 was 250 to 1000 nM.
The result for `Cc1cc(-c2n[nH]c3cc4c(cc23)CN(CCNCc2ccc(F)c(Cl)c2)C(=O)N4)ccn1` [Example 173] reads > 1000 nM.
In the case of `Cc1cc(-c2n[nH]c3cc4c(cc23)CN(CCNCc2ccc(F)cc2)C(=O)N4)ccn1` [Example 175] it was 250 to 1000 nM; in that of `Cc1cc(-c2n[nH]c3cc4c(cc23)CN(CCNCc2cccc(Cl)c2)C(=O)N4)ccn1` [Example 176], 250 to 1000 nM; in that of `Cc1cc(-c2n[nH]c3cc4c(cc23)CN([C@@H]2CCC[C@H](NCc3ccccc3)C2)C(=O)N4)ccn1` [Example 177], 250 to 1000 nM.
In the case of `Cc1cc(-c2n[nH]c3cc4c(cc23)CN([C@@H]2CCCN(CC3(C)CC3)C2)C(=O)N4)ccn1` [Example 182] it was 250 to 1000 nM.
Regarding `Cc1cc(-c2n[nH]c3cc4c(cc23)CN([C@@H]2CCCN(Cc3cnccc3C)C2)C(=O)N4)ccn1` [Example 183], the IC50 fell in the range of 250 to 1000 nM.
The result for `Cc1cc(-c2n[nH]c3cc4c(cc23)CN([C@@H]2CCCN(Cc3cc(C(C)(C)C)no3)C2)C(=O)N4)ccn1` [Example 186] reads 250 to 1000 nM.
The result for `Cc1cc(-c2n[nH]c3cc4c(cc23)CN([C@@H]2CCCN(Cc3cc(C5CC5)on3)C2)C(=O)N4)ccn1` [Example 188] reads ≤ 250 nM.
In the case of `Cc1cc(-c2n[nH]c3cc4c(cc23)CN(C2CN(CCC3CC3)C2)C(=O)N4)ccn1` [Example 189] it was > 1000 nM; in that of `Cc1cc(-c2n[nH]c3cc4c(cc23)CN(C2CN(Cc3ccccc3)C2)C(=O)N4)ccn1` [Example 191], 250 to 1000 nM; in that of `Cc1cc(-c2n[nH]c3cc4c(cc23)CN(C2CN(CCc3ccccc3)C2)C(=O)N4)ccn1` [Example 192], 250 to 1000 nM.
Turning to `Cc1cc(-c2n[nH]c3cc4c(cc23)CN([C@@H]2CCCN(C3CCCCC3)C2)C(=O)N4)ccn1` [Example 194], the IC50 is 250 to 1000 nM.
The result for `Cc1cc(-c2n[nH]c3cc4c(cc23)CN([C@@H]2CCCN(Cc3sc(C)nc3C)C2)C(=O)N4)ccn1` [Example 195] reads 250 to 1000 nM.
On to `Cc1cc(-c2n[nH]c3cc4c(cc23)CN([C@@H]2CCCN(CC(=O)C(C)(C)C)C2)C(=O)N4)ccn1` [Example 203], for which the IC50 was in the range of 250 to 1000 nM.
Regarding `Cc1cc(-c2n[nH]c3cc4c(cc23)CN([C@@H]2CCN(CC3CCCC3)C2)C(=O)N4)ccn1` [Example 206], the IC50 was > 1000 nM.
In the case of `Cc1cc(-c2n[nH]c3cc4c(cc23)CN([C@@H]2CCN(CCC(C)C)C2)C(=O)N4)ccn1` [Example 207] it was 250 to 1000 nM; in that of `Cc1cc(-c2n[nH]c3cc4c(cc23)CN(CC2CCCN(Cc3ccccc3)C2)C(=O)N4)ccn1` (centres unmarked) [Example 208], > 1000 nM.
In the case of `Cc1cc(-c2n[nH]c3cc4c(cc23)CN([C@@H]2CCCN(CC(=O)C(C)C)C2)C(=O)N4)ccn1` [Example 209] it was 250 to 1000 nM; in that of `Cc1cc(-c2n[nH]c3cc4c(cc23)CN([C@@H]2CCCN(C3CCC3)C2)C(=O)N4)ccn1` [Example 210], > 1000 nM; in that of `Cc1cc(-c2n[nH]c3cc4c(cc23)CN([C@@H]2CCCN(C3CCCC3)C2)C(=O)N4)ccn1` [Example 215], 250 to 1000 nM.
The result for `Cc1cc(-c2n[nH]c3cc4c(cc23)CN(Cc2ccccc2Cl)C(=O)N4)ccn1` [Example 217] reads ≤ 250 nM; that for `Cc1cc(-c2n[nH]c3cc4c(cc23)CN(Cc2ccccc2C(F)(F)F)C(=O)N4)ccn1` [Example 218], 250 to 1000 nM.
For `Cc1cc(-c2n[nH]c3cc4c(cc23)CN(C2CCOC(C)(C)C2)C(=O)N4)ccn1` (centres unmarked) [Example 219], the half-inhibitory concentration (IC50) fell in the range of 250 to 1000 nM.
The result for `Cc1cc(-c2n[nH]c3cc4c(cc23)CN(CCC2CCOCC2)C(=O)N4)ccn1` [Example 220] reads ≤ 250 nM; that for `CC(C)c1cc(-c2n[nH]c3cc4c(cc23)CN(Cc2cccc(Cl)c2)C(=O)N4)ccn1` [Example 230], 250 to 1000 nM.
In the case of `Cc1cc(-c2n[nH]c3cc4c(cc23)CN(C2CCC(=O)N(Cc3ccccc3)C2)C(=O)N4)ccn1` (centres unmarked) [Example 232] it was 250 to 1000 nM.
In the case of `Cc1cc(-c2n[nH]c3cc4c(cc23)CN(Cc2ccc(C(F)(F)F)cc2)C(=O)N4)cc(C)n1` [Example 233] it was ≤ 250 nM; in that of `Cn1nccc1-c1n[nH]c2cc3c(cc12)CN(Cc1cccc(Cl)c1)C(=O)N3` [Example 235], > 1000 nM.

The record behind these values is patent publication US10301317B2, “Inhibitors of ERK and methods of use” (Kura Oncology, Inc., priority 2013, dated 2019).
